Reference: US8846103B2, “Exogenously triggered controlled release materials and uses thereof” (SmartCells, Inc., priority 2009, dated 2014)

Key:
[1] = target: concanavalin A (Con A) (Canavalia ensiformis, UniProt P02866); conditions: higher affinity than glucose; cited from earlier work
[2] = test system: non-diabetic SD rats; format: in vivo, Sprague Dawley (SD) rats
Experimental: FIG. 3: (a) Plot of (♦) serum insulin and (◯) blood glucose levels following subcutaneous injection in non-diabetic SD rats at time 0 with TSB-C4-AEBM-2-insulin/native Con A (an α-methyl mannose-responsive material). An i.p. injection of α-methyl mannose was administered at 120 min as indicated by the *.
0.300 ml of the formulation prepared in Example 1 was injected subcutaneously into each of three normal male Sprague Dawley (SD) rats (Charles River Laboratories, Wilmington, Mass.) weighing between 400 and 500 g. Prior to formulation injection, blood glucose values were measured via tail vein bleeding using a Precision Xtra glucometer (Abbott Laboratories, Alameda, Calif.) and approximately 100 ul of serum was obtained via tail vein bleeding to assay for background insulin levels. Food was removed from the rat cages during the duration of the study. Serum and blood glucose values were obtained at 30 min, 60 min, 90 min, and 120 min post-injection. At 120 min after the injection, an intraperitoneal injection of a 25% w/v α-methyl-mannose solution was injected to provide a 2 g/kg dose after which serum and blood glucose values were obtained at 135 min, 150 min, 180 min, 210 min, 240 min, and 300 min.

In the case of `COC1O[C@H](CO)[C@@H](O)[C@H](O)[C@@H]1O` (stereo partly drawn) [α-methyl-mannose], the “affinity for Con A relative to endogenous glucose” value [1] is given as “about 40 fold”.

In the case of “exemplary conjugate with two AEBM affinity ligands: Conjugate with TSB-C4 as the scaffold, AEBM as the affinity ligand, insulin (conjugated at Phe-B1) as the drug”, the “conjugate release at physiologically normal blood glucose levels (background release)” value ([2]; rat, in vivo, sc) is reported as “very little background release” and the “response to exogenous α-methyl-mannose” value ([2]; summary statement on Examples 1-2) is reported as “significant response”.
